Assay results reported in patent US7919457B2, “Thrombin peptide derivative dimers” (Orthologic Corp., priority 2002, dated 2011).

Legend:
thrombin receptors = test: Peptide competition for [125I]-alpha-thrombin binding to ME cells; settings: for fold higher concentration required for 30% inhibition than p508-530: [125I]-alpha-thrombin binding; for Conc. at Maximal % Inhibition / Concentration Required for 30% Inhibition / Maximal % Inhibition: [125I]-alpha-thrombin binding to ME cells; for Maximal % Inhibition: at the conc. printed below the value
Text: Thrombin peptide derivatives are believed to activate cells by binding to a high-affinity cell-surface thrombin receptor known as the non-proteolytically-activated thrombin receptor (hereinafter “NPAR”) (R. Horvat, et. al., J. Cell Sci. 108, 1155-1164, 1995). Compounds which stimulate NPAR are said to be thrombin receptor agonists. NPAR activation can be assayed based on the ability of molecules to stimulate cell proliferation when added to fibroblasts in the presence of submitogenic concentrations of thrombin or molecules that activate protein kinase C or compete with ^125I-thrombin for high affinity binding to thrombin receptors, as disclosed in U.S. Pat. Nos. 5,352,664 and 5,500,412 and in Glenn et al., J. Peptide Research 1:65 (1988).
To further identify regions of thrombin involved in high-affinity binding and generation of mitogenic signals, two peptides representing specific domains within p508-530 were tested. The first peptide represented residues 519 to 530 of the B-chain region of human prothrombin, a region of thrombin that is highly conserved among serine proteases. The second peptide represented residues 517 to 520 of prothrombin, a region of thrombin homologous to the fibronectin cell binding domain.
Both of these peptides were able to compete for 30% to 50% of the binding of [^125I]-alpha-thrombin to ME cells, but both required higher concentrations than was required with the initial peptide p508-530 (Table 1). For example, 30% inhibition of [^125I]-alpha-thrombin binding required 33- to 50-fold higher concentrations of p519-530 and p517-520 than p508-530, respectively. Thus, both of these peptides appear to interact with thrombin receptors, but at a lower affinity than p508-530. Because p517-520 is homologous to the fibronectin cell binding domain, a peptide having the sequence Arg-Gly-Ala-Ser (SEQ ID NO:13; the sequence of the fibronectin specific peptide) was also tested for its ability to compete for [^125I]-alpha-thrombin binding. […] Thus, the receptor for alpha-thrombin is not the same membrane protein that specifically interacts with fibronectin and causes the apparent growth promoting action of fibronectin.

NIL cells = settings: increasing concentrations, quiescent NIL cells, 2 and 4 nM alpha-thrombin; FIG. 6 of U.S. Pat. No. 5,500,412; cited from earlier work

Row | Substance | competition with [125I]-alpha-thrombin for binding (thrombin receptors; at a concentration of 1.3 μM) | fold higher concentration required for 30% inhibition than p508-530 (thrombin receptors) [fold] | Conc. at Maximal % Inhibition (thrombin receptors) | Concentration Required for 30% Inhibition (thrombin receptors) [nM] | Maximal % Inhibition (thrombin receptors) [%] | effect on DNA synthesis (NIL cells)
1 | Arg-Gly-Ala-Ser (RGAS; Fibronectin fragment) | did not compete |  |  |  |  | 
2 | DACEGDSGGPFV (Thrombin peptide derivative) [p519-530] |  | 33 | (800 nM) | 200 | 51 | enhanced DNA synthesis over a range of concentrations
3 | RGDA (Thrombin peptide fragment) [p517-520] |  | 50 | (2.7 μM) | 300 | 50 | inhibited DNA synthesis
